Source: patent US6906205B2, “Spiro and dispiro 1,2,4-trioxolane antimalarials” (Medicines for Malaria Venture MMV, priority 2002, dated 2005)
Converted amounts (≈) assume the structure as drawn.

What was measured:
[1] = tested on: P. falciparum K1 strain (Thailand resistant to chloroquine); experiment: semiautomated microdilution assay, [3H]-hypoxanthine incorporation, K1 strain; assay type: cell-based, Plasmodium falciparum; conditions: K1 strain, 72 h incubation
In short: (§1)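 Intraerythrocytic stages from unsynchronised stock cultures are exposed to test compounds in a semiautomated microdilution format, and fifty percent inhibitory concentrations are then fitted by logit regression.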

[2] = tested on: P. falciparum NF54 strain (sensitive to standard antimalarials); experiment: semiautomated microdilution assay, [3H]-hypoxanthine incorporation, NF54 strain; assay type: cell-based, Plasmodium falciparum; conditions: NF54 strain, 72 h incubation
In short: as §1

[3] = tested on: ANKA strain of P. berghei; experiment: single dose STI in vivo screen in infected mice; set-up: species or system Plasmodium berghei; conditions: for Activity (%) po / Activity (%) sc / Activity (%) SSVpo: percent reduction in parasitemia day 3 post-infection, mice; for Activity (%) po / Survival (days) po: single 10 mg/kg po in 3% ethanol and 7% Tween 80; for Activity (%) sc / Survival (days) sc: single 10 mg/kg sc in 3% ethanol and 7% Tween 80; for Activity (%) SSVpo: single po dose in standard suspending vehicle (SSV); for Survival (days) po / Survival (days) sc / Survival (days) SSVpo: untreated control 5.6 ± 0.3; for Survival (days) SSVpo: single po dose in SSV
In short: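 Groups of 3-5 Moro SPF or NMRI mice infected with the ANKA strain of P. berghei received a single dose of trioxolane on day one post-infection. The compound was given in 3% ethanol and 7% Tween 80 or in SSV (0.5% w/v CMC, 0.5% v/v benzyl alcohol, 0.4% v/v Tween 80, 0.9% w/v sodium chloride in water). Antimalarial activity was scored as percent reduction in parasitemia on day three and as survival time versus untreated controls. Survival to day 30 counted as cure.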

[4] = tested on: Schistosoma mansoni 21-day-old schistosomules; experiment: effect on 21-day-old schistosomules in mice; assay type: in vivo; conditions: single 200 mg/kg per os, female mice
Procedure: All groups were killed 4 weeks after treatment and the liver and intestine were removed and separated. The liver and intestine were compressed and alive male and female worms could be seen and counted. The effect of the compounds was evaluated by mean total and female worm burden.

| Structure (SMILES) | IC50 (ng/ml) K1 [1] | IC50 (ng/ml) NF54 [2] | Activity (%) po [3] [%] | Activity (%) sc [3] [%] | Activity (%) SSVpo [3] [%] | Survival (days) po [3] [days] | Survival (days) sc [3] [days] | Survival (days) SSVpo [3] [days] | % reduction of schistosomule growth at day 21 after per os application of 200 mg/kg, FWR (%) [4] [%] | % reduction of schistosomule growth at day 21 after per os application of 200 mg/kg, TWR (%) [4] [%] | Activity (%) po ([3]; 10 mg/kg) [%] | Activity (%) sc ([3]; 10 mg/kg) [%] | Survival (days) sc ([3]; 10 mg/kg) [days] | Survival (days) po ([3]; 10 mg/kg) [days] |
| --- | --- | --- | --- | --- | --- | --- | --- | --- | --- | --- | --- | --- | --- | --- |
| c1ccc(CNC2CCC3(CC2)OOC2(O3)C3CC4CC(C3)CC2C4)cc1 (stereo not shown) [OZ160] | 0.70 ng/mL (≈ 1.89 nM) | 0.87 ng/mL (≈ 2.35 nM) | 45 | 99.94 | 43 | 6.3 | 12.0 | 6.7 | 0 | 15 | – | – | – | – |
| CN1CCN(C(=O)N2CCC3(CC2)OOC2(O3)C3CC4CC(C3)CC2C4)CC1 (stereo not shown) [OZ157] | 0.20 ng/mL (≈ 0.511 nM) | 0.22 ng/mL (≈ 0.562 nM) | 90 | 97 | 80 | 7.3 | 8.3 | 8.3 | 68 | 65 | – | – | – | – |
| O=[N+]([O-])c1ccc(N2CCC3(CC2)OOC2(O3)C3CC4CC(C3)CC2C4)cc1 (stereo not shown) [OZ151] | 3.8 ng/mL (≈ 9.83 nM) | 4.0 ng/mL (≈ 10.4 nM) | 71 | 99.63 | 71 | 7.3 | 11.0 | 7.3 | 19 | 19 | – | – | – | – |
| ON=C1CCC2(CC1)OOC1(O2)C2CC3CC(C2)CC1C3 (stereo not shown) [OZ16] | 0.45 ng/mL (≈ 1.53 nM) | 0.67 ng/mL (≈ 2.28 nM) | 79 | 99.2 | 83 | 6.7 | 7.3 | 6.7 | 77 | 78 | – | – | – | – |
| CC(C)(C)CC(=O)N1CCC2(CC1)OOC1(O2)C2CC3CC(C2)CC1C3 (stereo not shown) [OZ111] | 0.92 ng/mL (≈ 2.53 nM) | – | 98 | 99.94 | 79 | 7.7 | 8.3 | 6.3 | 68 | 71 | – | – | – | – |
| OC12CC3CC(C1)C1(OOC4(CCC5(CC4)OCCO5)O1)C(C3)C2 (stereo not shown) [OZ152] | 3.2 ng/mL (≈ 9.46 nM) | 7.2 ng/mL (≈ 21.3 nM) | – | – | 12 | 6.3 | – | 6.7 | 11 | 19 | 0 | 22 | 6.7 | – |
| c1cn(C[C@H]2CC[C@]3(CC2)OOC2(O3)C3CC4CC(C3)CC2C4)cn1 (stereo partly shown) [OZ145] | 0.50 ng/mL (≈ 1.45 nM) | 0.76 ng/mL (≈ 2.21 nM) | – | – | 99.21 | – | – | 10.7 | 83 | 80 | 99.82 | 99.87 | 10.7 | 8.3 |
| CS(=O)(=O)N1CCC2(CC1)OOC1(O2)C2CC3CC(C2)CC1C3 (stereo not shown) [OZ56] | 0.59 ng/mL (≈ 1.72 nM) | 0.64 ng/mL (≈ 1.86 nM) | 93 | 99.97 | 63 | 6.7 | 10.3 | 5.7 | 66 | 69 | – | – | – | – |
| CC1(C)CC(C)(C)CC2(C1)OOC1(O2)C2CC3CC(C2)CC1C3 (stereo not shown) [OZ26] | 3.1 ng/mL (≈ 9.67 nM) | 5.0 ng/mL (≈ 15.6 nM) | 88 | 99.9 | – | 7.0 | 9.7 | – | 40 | 37 | – | – | – | – |
| CC1(C)CCC2(CC1)OOC1(O2)C2CC3CC(C2)CC1C3 (stereo not shown) [OZ33] | 2.3 ng/mL (≈ 7.87 nM) | 3.5 ng/mL (≈ 12 nM) | 80 | 99.97 | – | 6.7 | 11.7 | – | 14 | 28 | – | – | – | – |
| c1ccc(CON=C2CCC3(CC2)OOC2(O3)C3CC4CC(C3)CC2C4)cc1 (stereo not shown) [OZ19] | 1.3 ng/mL (≈ 3.39 nM) | 2.7 ng/mL (≈ 7.04 nM) | 98.3 | 99.98 | 56 | 7.5 | 13.4 | 6.0 | 74 | 77 | – | – | – | – |
| CC(C)(C)ON=C1CCC2(CC1)OOC1(O2)C2CC3CC(C2)CC1C3 (stereo not shown) [OZ28] | 2.1 ng/mL (≈ 6.01 nM) | 2.5 ng/mL (≈ 7.15 nM) | 93 | 99.97 | – | 7.3 | 12.3 | – | 87 | 81 | – | – | – | – |
| C1CCN(C2CCC3(CC2)OOC2(O3)C3CC4CC(C3)CC2C4)CC1 (stereo not shown) [OZ159] | 0.70 ng/mL (≈ 2.01 nM) | 0.94 ng/mL (≈ 2.71 nM) | 34 | 98 | 31 | 6.7 | 9.0 | 6.7 | 19 | 19 | – | – | – | – |
| C1C2CC3CC1CC(C2)C31OOC2(CCC3(CC2)OOC2(O3)C3CC4CC(C3)CC2C4)O1 (stereo not shown) [OZ169] | 15 ng/mL (≈ 33.7 nM) | > 10 ng/mL | 98 | 99.76 | 22 | 7.7 | 9.0 | 6.7 | 0 | 0 | – | – | – | – |
| O=C(NN=C1CCC2(CC1)OOC1(O2)C2CC3CC(C2)CC1C3)Nc1ccccc1 (stereo not shown) [OZ30] | 0.65 ng/mL (≈ 1.58 nM) | 1.3 ng/mL (≈ 3.16 nM) | 0 | 86 | – | 5.3 | 9.0 | – | 12 | 16 | – | – | – | – |
| CC(C)(C)OC(=O)N1CCC2(CC1)OOC1(O2)C2CC3CC(C2)CC1C3 (stereo not shown) [OZ35] | 1.7 ng/mL (≈ 4.65 nM) | 2.1 ng/mL (≈ 5.75 nM) | 74 | 99.98 | – | 6.3 | 9.3 | – | 63 | 73 | – | – | – | – |
| C1CC2(CCO1)OOC1(O2)C2CC3CC(C2)CC1C3 (stereo not shown) [OZ22] | 0.32 ng/mL (≈ 1.2 nM) | 0.56 ng/mL (≈ 2.1 nM) | 35 | 99.6 | – | 6.0 | 7.7 | – | 76 | 75 | – | – | – | – |
| NC[C@H]1CC[C@]2(CC1)OOC1(O2)C2CC3CC(C2)CC1C3 (stereo partly shown) [OZ163] | 0.2/0.2 ng/ml | 0.2/0.2 ng/ml | – | 100 | 99.94 | – | – | 9.0 | 80 | – | 99.90 | – | 9.7 | 8.0 |
